Experimental data from PubChem BioAssay (NCI).
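96-well plates; 48 h exposure; 5 concentrations. Endpoints by linear interpolation between flanking doses. Not reached: highest tested concentration assigned. TGI marks complete inhibition of growth.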

Assays:
Assay in all cases: NCI-60 cell line screen, 48 h
[1] = tested on: CAKI-1 renal
[2] = tested on: CCRF-CEM leukemia
[3] = tested on: COLO 205 colon
[4] = tested on: OVCAR-3 ovarian
[5] = tested on: OVCAR-4 ovarian
[6] = tested on: PC-3 prostate
[7] = tested on: SF-539 CNS
[8] = tested on: SK-MEL-5 melanoma
[9] = tested on: SN12C renal
[10] = tested on: SNB-19 CNS
[11] = tested on: T-47D breast
[12] = tested on: IGROV1 ovarian
[13] = tested on: NCI-H23 lung

Row | SMILES | TGI [1] [µM] | TGI [2] [µM] | TGI [3] [µM] | TGI [4] [µM] | TGI [5] [µM] | TGI [6] [µM] | TGI [7] [µM] | TGI [8] [µM] | TGI [9] [µM] | TGI [10] [µM] | TGI [11] [µM] | TGI [12] [µM] | TGI [13] [µM]
1 | Nc1ncnc2c1ncn2CC(OCP(=O)(O)O)Oc1ccccc1 (stereo unspecified) | > 100 | > 100 | > 100 | > 100 | > 100 | > 100 | > 100 | > 100 | > 100 | > 100 | > 100 | – | –
2 | COC(CNC(=O)C(C)NC(=O)C(C)NC(=O)c1ccccc1)OC (stereo unspecified) | > 100 | > 100 | > 100 | – | > 100 | > 100 | > 100 | > 100 | > 100 | – | > 100 | > 100 | > 100
3 | Cc1sc(N=Nc2c(O)[nH]c3ccccc23)nc1-c1ccccc1 | 32.8 | – | 46.2 | 27.2 | 42.3 | – | 37.5 | 33.9 | 34.9 | 37.3 | 33.1 | 27.1 | 34.6
4 | C[n+]1c2ccccc2c(NC(CCC(N)=O)C(=O)O)c2ccccc21 (stereo unspecified) | – | – | > 100 | > 100 | > 100 | – | > 100 | > 100 | > 100 | > 100 | – | > 100 | > 100
5 | CCCCCCCCCCCCCCCCCC(=O)NCCCNCCCNC(=O)CCCCCCCCCCCCCCCCC | > 100 | > 100 | > 100 | > 100 | > 100 | – | – | > 100 | > 100 | > 100 | – | > 100 | > 100
6 | Cc1ccc(N2C(=O)/C(=c3\s/c(=C(/N)O)c(=N)n3-c3ccccc3)SC2=S)cc1 | – | > 100 | > 100 | > 100 | – | – | > 100 | > 100 | – | > 100 | – | > 100 | > 100
7 | Cn1ncc2c(NCCc3ccccc3)nc(Cl)nc21 | 91.4 | – | 34.2 | > 100 | 57.7 | 71.8 | – | 38.6 | > 100 | > 100 | 79.3 | > 100 | > 100
8 | Cc1cc2c3c(ccc4ncc(c43)CN2c2ccc(NS(C)(=O)=O)cc2)[nH]1 | 64.5 | > 100 | > 100 | 81.5 | > 100 | > 100 | – | > 100 | – | 10.4 | – | > 100 | > 100
9 | C=CCC1(O)c2cccc(O)c2C(=O)c2c(O)cccc21 | > 100 | – | – | > 100 | > 100 | 88 | > 100 | 85.9 | – | – | 78.3 | > 100 | 56.9
10 | O=C(c1nsc(Cl)c1Cl)N1CCCCC1 | > 100 | > 100 | > 100 | > 100 | > 100 | > 100 | > 100 | > 100 | > 100 | > 100 | – | > 100 | > 100
11 | CC(C)CCNC(=O)c1ccc(CNC(=O)/C=C/c2ccc(-c3ccccc3[N+](=O)[O-])o2)cc1 | > 100 | > 100 | > 100 | > 100 | 55.3 | > 100 | – | > 100 | > 100 | > 100 | 63.5 | – | > 100
12 | CNC(Cc1ccccc1)c1cccc(OC)c1O (stereo unspecified) | > 100 | – | – | > 100 | > 100 | > 100 | – | > 100 | > 100 | > 100 | 60.4 | > 100 | > 100
13 | Nc1nc(Nc2ccc(Cl)cc2)sc1C(=O)c1cc2ccccc2oc1=O | – | > 100 | > 100 | 38.6 | > 100 | > 100 | > 100 | > 100 | > 100 | > 100 | > 100 | > 100 | 89.5
14 | CCOc1ccc(N=Cc2cc(OC)c(OC)c(OC)c2)cc1 | > 100 | > 100 | > 100 | > 100 | > 100 | – | > 100 | > 100 | > 100 | > 100 | – | > 100 | > 100
15 | OC[C@H]1CC(c2nn[nH]n2)[C@H](O)[C@@H]1O (stereo partly specified) | – | > 100 | > 100 | > 100 | > 100 | > 100 | > 100 | > 100 | > 100 | > 100 | > 100 | > 100 | > 100
16 | CC(=O)Oc1ccc(-c2cc3ccccc3oc2=O)cc1OC(C)=O | – | > 100 | > 100 | – | > 100 | > 100 | > 100 | – | > 100 | > 100 | > 100 | – | > 100
17 | CC1=NN(C(=O)c2ccc(Cl)cc2)C(=O)/C1=C/c1cccc(O)c1 | > 100 | > 100 | > 100 | > 100 | > 100 | – | > 100 | > 100 | > 100 | > 100 | – | > 100 | > 100
18 | CC(C)(C)OC(=O)C1/C(=C/CO)CN1C(=O)OC(C)(C)C (stereo unspecified) | > 100 | > 100 | > 100 | > 100 | > 100 | > 100 | > 100 | > 100 | > 100 | > 100 | – | > 100 | > 100
19 | CN1c2ccccc2C2c3c(O)ccc(O)c3C=C([N+](=O)[O-])C21 (stereo unspecified) | 5.16 | > 100 | 8.55 | – | 2.81 | 4.79 | 4.45 | 1.89 | – | 2.03 | > 100 | 5.87 | 5.61
20 | Cc1c2n(c3ccccc13)CC1C2N(C)OC1(C)C (stereo unspecified) | > 100 | > 100 | > 100 | > 100 | > 100 | – | > 100 | > 100 | > 100 | > 100 | – | – | > 100
21 | Cc1c(-c2ccccc2)n(C)c2cn[nH]c(=O)c12 | > 100 | > 100 | 32 | 47.7 | – | 51.3 | > 100 | 31.8 | – | > 100 | – | > 100 | > 100
